pIC50: −log10 of the molar value. Square brackets hold non-standard residues; d marks the D form. Peptide text beside a SMILES is read from it. * marks the point of attachment. CA = chloroamidine (on ornithine side chain, O(CA) = ornithine chloroamidine), N=C(CCl)*; Orn(fluoroacetimidoyl) = N=C(CF)NCCC[C@H](N)C(=O)O; Orn = NCCC[C@H](N)C(=O)O
Legend:
[1] = target: creatine kinase (CK); assay: Creatine kinase activity (CK NAC activated liquiUV test); assay type: biochemical, mammalian; settings: enzyme treated with inhibitor 10 min at room temperature
Description: (§1) The activities of CK and TG (both purchased from Sigma-Aldrich (Schnelldorf, Germany) were assayed with the help of the commercial kits CK NAC activated liquiUV test form
(§2) Human GmbH (Wiesbaden, Germany) and the Enzymatic Assay of [sequence] from Sigma-Aldrich (Schnelldorf, Germany) according to the manufacturers' instructions.

[2] = target: T1, caspase-3 (Homo sapiens, UniProt P42574); assay: Caspase-3 activity assay (Ac-DEVDpNA cleavage); assay type: biochemical, mammalian; settings: enzyme treated with inhibitor 10 min at room temperature
T1 sequence (P42574 29-175 limits assumed): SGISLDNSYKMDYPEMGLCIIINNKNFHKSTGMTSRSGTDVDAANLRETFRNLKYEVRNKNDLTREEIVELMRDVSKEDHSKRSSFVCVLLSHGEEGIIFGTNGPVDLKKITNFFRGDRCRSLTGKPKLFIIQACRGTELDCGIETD
T1 sequence (P42574 176-277 limits assumed): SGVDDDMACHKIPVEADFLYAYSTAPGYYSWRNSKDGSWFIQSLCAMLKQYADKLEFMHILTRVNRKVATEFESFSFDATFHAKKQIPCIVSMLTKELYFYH
Description: Upon incubation of purified recombinant caspase-3 with its commercially available substrate: acetyl-Asp-Glu-Val-Asp-p-nitroanilide (Ac-DEVDpNA) SEQ ID NO: 145 in CFS buffer (220 mM mannitol, 68 mM sucrose, 2mM NaCl, 2.5 mM KH2PO4, 10 mM HEPES, pH 7.4 plus a cocktail of protease inhibitors), the substrate is cleaved, pNA is released and its absorbance at 405 nm can be monitored.

[3] = target: hDDAH-1 (Homo sapiens, UniProt O94760); assay: biochemical
Sequence of hDDAH-1 (O94760 whole entry): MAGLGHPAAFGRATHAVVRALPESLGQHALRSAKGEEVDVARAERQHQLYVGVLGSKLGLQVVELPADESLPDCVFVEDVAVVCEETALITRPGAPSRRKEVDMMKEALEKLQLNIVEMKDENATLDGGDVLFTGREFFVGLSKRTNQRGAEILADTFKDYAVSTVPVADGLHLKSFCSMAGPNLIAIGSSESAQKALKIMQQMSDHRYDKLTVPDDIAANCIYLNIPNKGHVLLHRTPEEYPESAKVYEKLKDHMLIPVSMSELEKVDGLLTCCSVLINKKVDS
Description: The most commonly used procedure to determine hDDAH-1 activity relies on diacetyl monoxime (DAMO) derivatization of the ureido group in L-citrulline to form a colored product. This assay has been optimized for monitoring DDAH activity in a 96-well format {Knipp et al., 2000}.
Purified recombinant His6-tagged hDDAH-1 was incubated with its substrate ADMA in assay buffer (100 mM Na2HPO4, pH 8.0) at 37° C. for 1 h. The reaction was quenched by the addition of 0.3 M trifluoroacetic acid. The L-citrulline formed was modified with 1.5 mg/ml DAMO (diacetyl monoxime) and 1.0 mg/ml antipyrine in the presence of 15% sulphuric acid, 12% phosphoric acid and 0.16 mg/ml FeCla3 for 10 minutes at 100° C. After cooling down to room temperature, the absorbance was measured at 450 nm.

[4] = target: papain (Carica papaya, UniProt P00784); assay: biochemical
Sequence of papain (P00784 134-345): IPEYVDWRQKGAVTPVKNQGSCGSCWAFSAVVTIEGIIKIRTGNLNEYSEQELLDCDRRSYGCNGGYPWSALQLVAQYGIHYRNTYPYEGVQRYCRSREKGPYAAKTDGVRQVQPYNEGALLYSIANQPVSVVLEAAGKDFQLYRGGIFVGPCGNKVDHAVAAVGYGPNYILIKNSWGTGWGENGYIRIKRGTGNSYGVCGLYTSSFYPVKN
Description: The activity of papain was assessed using a similar experimental setting, based on its cleavage of pGlu-Phe-Leu-pNA in reaction buffer (25 mM Tris-HCL, pH 7.6; 150 mM NaCl).

[5] = target: transglutaminase (TG) (UniProt P08587); assay: biochemical
Sequence of transglutaminase (TG) (P08587 whole entry): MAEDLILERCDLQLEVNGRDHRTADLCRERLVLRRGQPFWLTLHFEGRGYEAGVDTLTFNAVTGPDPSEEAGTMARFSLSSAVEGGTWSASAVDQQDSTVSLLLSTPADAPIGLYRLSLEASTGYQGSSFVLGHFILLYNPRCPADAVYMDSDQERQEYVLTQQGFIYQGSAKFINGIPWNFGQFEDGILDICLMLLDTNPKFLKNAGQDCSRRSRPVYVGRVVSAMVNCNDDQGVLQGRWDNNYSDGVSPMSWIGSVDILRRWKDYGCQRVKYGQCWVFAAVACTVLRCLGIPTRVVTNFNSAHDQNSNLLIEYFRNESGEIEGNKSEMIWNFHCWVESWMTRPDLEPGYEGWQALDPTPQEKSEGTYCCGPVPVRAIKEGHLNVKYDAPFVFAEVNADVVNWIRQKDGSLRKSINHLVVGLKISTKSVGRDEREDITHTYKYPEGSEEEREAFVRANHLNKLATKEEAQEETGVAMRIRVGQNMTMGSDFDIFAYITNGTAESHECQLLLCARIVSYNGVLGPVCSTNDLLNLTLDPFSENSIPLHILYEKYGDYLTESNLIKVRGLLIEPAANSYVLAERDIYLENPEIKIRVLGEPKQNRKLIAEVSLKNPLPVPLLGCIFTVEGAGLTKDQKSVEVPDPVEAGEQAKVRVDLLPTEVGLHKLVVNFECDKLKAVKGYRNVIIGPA
Description: as §1, §2

[6] = target: T2, PAD2 (Homo sapiens, UniProt Q9Y2J8); assay: Colorimetric assay (BAEE, DAMO/antipyrine), PAD2; assay type: biochemical; settings: Table 22, colorimetric assay of Example 6; read-out: IC50 values (μM) hPAD2
T2 sequence (Q9Y2J8 whole entry): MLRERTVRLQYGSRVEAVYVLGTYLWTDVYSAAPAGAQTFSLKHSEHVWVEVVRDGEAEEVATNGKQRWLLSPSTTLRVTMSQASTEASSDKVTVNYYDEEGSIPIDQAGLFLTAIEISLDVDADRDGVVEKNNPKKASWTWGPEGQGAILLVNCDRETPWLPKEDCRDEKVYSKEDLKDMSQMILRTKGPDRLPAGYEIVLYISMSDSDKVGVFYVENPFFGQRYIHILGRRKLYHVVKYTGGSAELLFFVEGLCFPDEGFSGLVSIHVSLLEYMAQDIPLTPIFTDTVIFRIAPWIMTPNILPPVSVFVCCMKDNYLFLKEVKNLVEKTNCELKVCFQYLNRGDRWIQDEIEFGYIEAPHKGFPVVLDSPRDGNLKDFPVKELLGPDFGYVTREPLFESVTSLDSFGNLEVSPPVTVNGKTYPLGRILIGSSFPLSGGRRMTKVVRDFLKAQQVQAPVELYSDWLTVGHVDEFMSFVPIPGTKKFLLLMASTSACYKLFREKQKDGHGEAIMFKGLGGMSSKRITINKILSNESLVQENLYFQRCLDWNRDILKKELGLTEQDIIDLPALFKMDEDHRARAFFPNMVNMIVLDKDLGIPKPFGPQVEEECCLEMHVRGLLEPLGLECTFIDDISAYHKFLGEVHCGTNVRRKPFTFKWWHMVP
Description: One of the assays that was used to investigate the inhibition of a PAD by the inhibitors, is the colorimetric assay that has been described previously {Sugawara et al. 1998}. In this assay benzoylarginine ethyl ester (BAEE) is incubated with a purified recombinant PAD enzyme as indicated in a buffer containing 50 mM Tris-HCl, pH 7.6, 10 mM CaCl2, 2 mM dithiothreitol for 3 hours at 37° C. […] After cooling down to room temperature, the absorbance is measured at 450 nm.
To test the efficacy of the inhibitors (see Table 21) in this assay, a recombinant PAD enzyme as indicated was pre-incubated with various concentrations of inhibitory compounds for 15 minutes at 37° C.
The capacity of various compounds to inhibit the human PAD2 (0.12 μM) and PAD4 (0.2 μM) in this colorimetric assay is illustrated in FIG. 4.

[7] = target: T2, PAD2; assay: ABAP antibody based PAD enzyme activity assay, PAD2; assay type: biochemical; settings: Table 19, first 8 pentapeptide inhibitors
Description: These 8 pentapeptides inhibitors are represented by SEQ ID NO: 12-19. (O(FA) stands for ornithine fluoroamidine, O(CA) stands for ornithine chloroamidine). The IC50's for human PAD2 and 4 as well as for mouse PAD2 and 4 were determined in an assay developed by Zendman and others {Zendman et al. 2007}. Of this series the inhibitor T-D-O(FA)-G-S(CXP5-101) (SEQ ID NO: 12) was the best PAD2 and PAD4 inhibitor. Subsequently, several modifications were brought to this lead compound.
To determine inhibition of PAD2 and PAD4 activity, the commercially available Antibody based PAD enzyme activity assay from ModiQuest Research (cat no: MQ17.101) has been used according to manufacturers specifications.
PAD enzymes (amounts that give maximum deimination) were mixed with PAD inhibitors at the following concentrations (4.9, 9.8, 19.5, 39, 78.1, 156, 313, 625, 1250, 2500 and 5000 μM) and pre-incubated for 30 minutes at 37° C. After pre-incubation, mixtures of PAD enzymes and inhibitors were added to the wells for an additional incubation of 75 minutes. After thoroughly washing the 96-well plates with PBS, the conversion of the arginines into citrullines of the coating was measured with the use of a propriety anti-citrulline-antibody, followed by a secondary HRP-labelled antibody recognizing the anti-citrulline antibody. Incubation with both antibodies was performed for 1 h at 37° C. […]

[8] = tested on: collagen antibody induced arthritis (CAIA); assay: Collagen antibody induced arthritis (CAIA) mouse model; assay type: in vivo; settings: 0.5 mg daily i.v. day 3 to 11 except day 9, male DBA/J1 mice, FIG. 6
Description: FIG. 6. The collagen antibody induced arthritis (CAIA) model (MQR; 18.101) was used to test the therapeutic effect of the PAD-inhibitor CXP5.7-011 (SEQ ID NO:143). At day 0 mice were injected i.p. with 2.8 mg anti-collagen antibodies. LPS (25 μg/mouse) was administered on day 3 via i.p. injection. The inhibitor (0.5 mg CXP5.7-011 in 200 μl PBS containing 20 mM sodium phosphate), or 200 μl PBS containing 20 mM sodium phosphate as the placebo, was administered daily from day 3 until day 11 (with the exception of day 9). Animals were scored daily until day 14 for degree of inflammation. Mean arthritis score per experimental group (5 mice) is indicated at each time point.
One of the peptide based human PAD 2 and PAD 4 inhibitors was tested in the commercially available collagen antibody induced arthritis (CAIA) mouse model (Modiquest research B.V., product number 18.101). Experimental procedures were performed according to manufacturers specifications to induce arthritis in mice (World Wide Web (www) modiquestresearch.n1/shop/files/18.101-50MG%20 —2007.08.22.pdf) In short, on day 0 male DBA/J1 mice (5mice/group) of the age of 8 weeks have been injected i.p. with a mix of 8 anti-collagen antibodies (2.8 mg/mouse). […]
Animals where scored daily for degree of inflammation in their paws. […]

`CC[C@H](C)[C@H](NC(=O)[C@H](Cc1ccccc1)NC(=O)[C@H](CC(=O)O)NC(=O)[C@H](CCCNC(=N)CF)NC(=O)[C@H](CC(=O)O)NC(=O)[C@H](Cc1ccccc1)NC(=O)[C@H](CCCCN)NC(C)=O)C(N)=O` [Peptide 0743-58FA, Ac-K-F-D-O(FA)-D-F-I-amide] (Ac-KFD[Orn(fluoroacetimidoyl)]DFI-NH2) was tested, and the IC50 [1] was 800 µM, the IC50 [2] was 920 µM and the pIC50 [3] was < 2.70. The pIC50 [4] was < 2.70, the pIC50 [5] was 3.00 and the IC50 [6] was 35 µM.

Work on `N=C(CF)NCCC[C@H](NC(=O)[C@H](CC(=O)O)NC(=O)CN)C(=O)N[C@@H](CO)C(=O)NCC(=O)O` [SEQ ID NO: 13, G-D-O(FA)-S-G] (H-GD[Orn(fluoroacetimidoyl)]SG-OH) yielded an IC50 [7] of 17 µM.

In the case of “Ac-Y-D-O(CA)-G-S-amide (Ac-YD[Orn](CA)GS-NH2; SMILES CC(=O)N[C@@H](Cc1ccc(O)cc1)C(=O)N[C@@H](CC(=O)O)C(=O)N[C@@H](CCCNC(=N)CCl)C(=O)NCC(=O)N[C@@H](CO)C(N)=O) [CXP5.7-011]”, the “degree of inflammation (mean arthritis score)” value [8] was “clearly demonstrates the inhibitory potential of the inhibitor in this model”.
